Laboratory results as given in PMC8922279, “Identification of β-Lactams Active against Mycobacterium tuberculosis by a Consortium of Pharmaceutical Companies and Academic Institutions” (ACS Infectious Diseases, 2022).

Legend:
E. coli = experiment: Microbial spectrum, E. coli; format: cell-based, Escherichia coli; conditions: clavulanate 4 μg/mL; Table S4
[1] = In vitro plasma stability, beagle dog plasma; conditions: 2 μM, 37 °C, time point 120 min
P. aeruginosa = experiment: Microbial spectrum, P. aeruginosa; format: cell-based, Pseudomonas aeruginosa; conditions: clavulanate 4 μg/mL; Table S4
[2] = In vitro plasma stability, CD-1 mouse plasma; conditions: 2 μM, 37 °C, time point 120 min
Mtb H37Rv [3] = experiment: MIC90 against replicating (R) Mtb H37Rv, with or without clavulanate; format: cell-based, Mycobacterium tuberculosis; conditions: Table S4; for Mtb H37Rv R + CLAV (MIC90): clavulanate 4 μg/mL; for Mtb H37Rv R (MIC90): no clavulanate
[4] = Stability in simulated gastric fluid (SGF); conditions: 10 μM, pH 1.2, room temperature
C. albicans = experiment: Microbial spectrum, C. albicans; format: cell-based, Candida albicans; conditions: no clavulanate; Table S4
[5] = In vitro plasma stability, SD rat plasma; conditions: 2 μM, 37 °C, time point 120 min
[6] = In vitro plasma stability, human plasma; conditions: 2 μM, 37 °C, time point 120 min
[7] = Stability in fasted simulated intestinal fluid (FaSSIF); conditions: 10 μM, pH 6.5, room temperature
[8] = In vitro plasma stability, cynomolgus monkey plasma; conditions: 2 μM, 37 °C, time point 120 min
Mtb H37Rv [9] = experiment: MIC90 against nonreplicating (NR, 4-stress) Mtb H37Rv, with or without clavulanate; format: cell-based, Mycobacterium tuberculosis; conditions: 4-stress nonreplicating, Table S4; for Mtb H37Rv NR + CLAV (MIC90): clavulanate 4 μg/mL; for Mtb H37Rv NR (MIC90): no clavulanate
S. aureus = experiment: Microbial spectrum, S. aureus; format: cell-based, Staphylococcus aureus; conditions: clavulanate 4 μg/mL; Table S4
plasma proteins [10] = experiment: Plasma protein binding (equilibrium dialysis), CD-1 mouse; conditions: 2 μM
plasma proteins [11] = experiment: Plasma protein binding (equilibrium dialysis), beagle dog; conditions: 2 μM
plasma proteins [12] = experiment: Plasma protein binding (equilibrium dialysis), human; conditions: 2 μM
Caco-2 cells = experiment: Caco-2 permeability / efflux transporter substrate; conditions: for Caco-2 Mean Papp A to B / Caco-2 Mean Papp B to A: 3 μM, pH 7.4, 120 min; for Caco-2 Efflux Ratio / Caco-2 Mean Recovery % A to B / Caco-2 Mean Recovery % B to A / Caco-2 Rank Papp / Efflux Transporter Substrate: Caco-2
plasma proteins [13] = experiment: Plasma protein binding (equilibrium dialysis), SD rat; conditions: 2 μM
plasma proteins [14] = experiment: Plasma protein binding (equilibrium dialysis), cynomolgus monkey; conditions: 2 μM

Row | SMILES | E.coli R + CLAV (MIC90) (E. coli) [µM] | Plasma stability % Remaining, Dog [1] [%] | P.aeruginosa R + CLAV (MIC90) (P. aeruginosa) [µM] | Plasma stability % Remaining, Mouse [2] [%] | Mtb H37Rv R + CLAV (MIC90) (Mtb H37Rv [3]) [µM] | Mtb H37Rv R (MIC90) (Mtb H37Rv [3]) [µM] | SGF Stability, % remaining, 1h [4] [%] | SGF Stability, % remaining, 24h [4] [%] | C.albicans R (MIC90) (C. albicans) [µM] | Plasma stability % Remaining, Rat [5] [%] | Plasma stability % Remaining, Human [6] [%] | FaSSIF Stability, % remaining, 6h [7] [%] | FaSSIF Stability, % remaining, 24h [7] [%] | Plasma stability % Remaining, Monkey [8] [%] | Mtb H37Rv NR + CLAV (MIC90) (Mtb H37Rv [9]) [µM] | Mtb H37Rv NR (MIC90) (Mtb H37Rv [9]) [µM] | S.aureus R + CLAV (MIC90) (S. aureus) [µM] | % bound to plasma, CD-1 Mouse (plasma proteins [10]) [%] | % bound to plasma, Beagle Dog (plasma proteins [11]) [%] | % bound to plasma, Human (plasma proteins [12]) [%] | also measured
1 | CCc1nnc(SCC2=C(C(=O)O)N3C(=O)[C@@H](NC(=O)Cc4ccc(C5=NCCCN5)cc4)[C@H]3SC2)s1 [TBBL-0000317] | > 100 | 31.5 | > 100 | 13.3 | 1.1 | 22.3 | 90.44 | 79.32 | > 100 | 2.4 | 17.4 | 94.96 | 90.38 | 13.4 | > 100 | > 100 | 2.1 | – | – | – | –
2 | Cn1c(SCC2=C(C(=O)O)N3C(=O)[C@@H](NC(=O)Cc4ccccc4CN)[C@H]3SC2)nnc(O)c1=O [TBBL-0000460] | 13.4 | 73.7 | > 200 | 88.8 | 2 | 5.4 | 102.88 | 85.68 | > 200 | 92.4 | 90.4 | 96.2 | 86.61 | 25.6 | 85.6 | 69.3 | 4.6 | 16.1 | 0.0 | 15.9 | Caco-2 Mean Papp A to B (Caco-2 cells): 0.16 10-6 cm/s; Caco-2 Mean Papp B to A (Caco-2 cells): 0.24 10-6 cm/s; Caco-2 Efflux Ratio (Caco-2 cells): 1.52; Caco-2 Mean Recovery % A to B (Caco-2 cells): 97.79%; Caco-2 Mean Recovery % B to A (Caco-2 cells): 106.35%; Caco-2 Rank Papp (Caco-2 cells): Low; Efflux Transporter Substrate (Caco-2 cells): Poor or no; % bound to plasma, SD Rat (plasma proteins [13]): 29.0%
3 | O=C(Cc1cccs1)N[C@@H]1C(=O)N2C(C(=O)[O-])=C(C[n+]3ccccc3)CS[C@H]12 [TBBL-0000493] | 37.9 | – | > 100 | – | 2.2 | 50 | – | – | > 100 | – | – | – | – | – | > 100 | > 100 | 0.8 | – | – | – | –
4 | CON=C(C(=O)N[C@@H]1C(=O)N2C(C(=O)O)=C(CSc3cccc[n+]3[O-])CS[C@H]12)c1csc(N)n1 [TBBL-0000539] | 13.1 | 79.7 | > 100 | 92.4 | 1.9 | 2 | 104.45 | 90.77 | > 100 | 98.2 | 83.4 | – | – | 120.8 | 4.6 | 4.7 | 17.3 | 20.9 | 5.2 | 56.9 | Caco-2 Mean Papp A to B (Caco-2 cells): < 0.10 10-6 cm/s; Caco-2 Mean Papp B to A (Caco-2 cells): 0.31 10-6 cm/s; Caco-2 Efflux Ratio (Caco-2 cells): > 3.03; Caco-2 Mean Recovery % A to B (Caco-2 cells): < 96.40%; Caco-2 Mean Recovery % B to A (Caco-2 cells): 105.53%; Caco-2 Rank Papp (Caco-2 cells): Low; Efflux Transporter Substrate (Caco-2 cells): Likely; % bound to plasma, SD Rat (plasma proteins [13]): 61.3%; % bound to plasma, Cynomolgus Monkey (plasma proteins [14]): 84.3%
